Measurements reported in patent US20230295118A1 (EnhancedBio Inc., priority 2022, published 2023).
Like-named read-outs stand apart in the source and are kept apart here.

What was measured:
Type in all cases: cell-based
[1] = target: T1, CDK4 (Homo sapiens, UniProt P11802); experiment: CDK4 degradation (DC50, Dmax)
T1 construct: endogenous in cells

[2] = system: mantle cell lymphoma cell (Mino or JeKo-1); experiment: Antiproliferative effect, MTS cell viability assay
Protocol: Antiproliferative effect of the exemplary compounds was assessed in B-cell malignancy models.
To assess the effect of the exemplary compounds on cell viability in B-cell malignancy models by degradation of CDK4/6 proteins, Mino cells were treated with varying concentrations of exemplary compounds (0, 0.0001, 0.001, 0.01, 0.1, 1 μM) or positive control (palbociclib and abemaciclib). Under these conditions, cell viability was determined by an MTS assay. Cytotoxicity was assayed by the determination of reduced tetrazolium (formazan) created by metabolically active cells as detected at 490 nanometers (nm) absorbance using a microplate reader (BMG Labtech, Cary, NC, USA).
The exemplary compounds attenuated the viability of Mino cells in a concentration-dependent manner at 72 h post treatment. Results are shown in Table 1 and FIGS. 2-15 for each exemplary compound.

[3] = target: T2, CDK6 (Homo sapiens, UniProt Q00534); experiment: CDK6 degradation (DC50, Dmax)
T2 construct: endogenous in cells

[4] = 72 h, mantle cell lymphoma cell (Mino or JeKo-1), MTS assay, read-out: IC50 (anti-proliferation)

T2 sequence (Q00534 whole entry): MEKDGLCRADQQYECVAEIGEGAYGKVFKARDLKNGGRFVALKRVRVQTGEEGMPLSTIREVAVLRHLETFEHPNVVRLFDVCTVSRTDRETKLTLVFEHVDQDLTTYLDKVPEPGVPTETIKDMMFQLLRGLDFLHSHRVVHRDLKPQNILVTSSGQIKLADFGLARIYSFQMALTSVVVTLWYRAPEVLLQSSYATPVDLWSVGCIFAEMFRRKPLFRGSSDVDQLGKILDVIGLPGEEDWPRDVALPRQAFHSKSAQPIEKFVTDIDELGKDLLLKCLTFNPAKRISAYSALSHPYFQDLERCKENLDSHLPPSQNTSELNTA
T1 sequence (P11802 whole entry): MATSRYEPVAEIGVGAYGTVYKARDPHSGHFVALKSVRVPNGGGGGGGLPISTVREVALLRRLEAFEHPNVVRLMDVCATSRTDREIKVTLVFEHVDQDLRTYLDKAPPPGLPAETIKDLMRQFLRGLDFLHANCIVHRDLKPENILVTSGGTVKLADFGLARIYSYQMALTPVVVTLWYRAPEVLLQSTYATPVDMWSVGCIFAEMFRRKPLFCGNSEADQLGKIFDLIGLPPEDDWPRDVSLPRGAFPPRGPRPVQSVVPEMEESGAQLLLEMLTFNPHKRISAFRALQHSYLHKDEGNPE

| DC50 [1] [nM] | Dmax [1] [%] | DC50 [3] [nM] | Dmax [3] [%] | IC50 [2, 4] [nM] | SMILES | IC50 ([2]; mantle cell lymphoma cell (Mino or JeKo-1); MTS assay, 72 h; read-out: IC50 (anti-proliferation)) [nM] |
| --- | --- | --- | --- | --- | --- | --- |
| > 200 | > 60 | > 200 | > 60 | 50 to 200 | CC(=O)c1c(C)c2cnc(Nc3ccc(N4CCN(C(=O)N5CCN(c6ccc7c(c6)CN(C6CCC(=O)NC6=O)C7=O)CC5)CC4)cn3)nc2n(C2CCCC2)c1=O (stereo not drawn) [Compound 2, 3-(5-(4-(4-(6-((6-acetyl-8-cyclopentyl-5-methyl-7-oxo-7,8-dihydropyrido[2,3-d]pyrimidin-2-yl)amino)pyridin-3-yl)piperazine-1-carbonyl)piperazin-1-yl)-1-oxoisoindolin-2-yl)piperidine-2,6-dione] | – |
| > 200 | > 50 | > 200 | > 50 | 50 to 200 | CC(=O)c1c(C)c2cnc(Nc3ccc(N4CCN(C(=O)N5CCC(N6CCN(c7ccc8c(c7)C(=O)N(C7CCC(=O)NC7=O)C8=O)CC6)CC5)CC4)cn3)nc2n(C2CCCC2)c1=O (stereo not drawn) [Compound 3, 5-(4-(1-(4-(6-((6-acetyl-8-cyclopentyl-5-methyl-7-oxo-7,8-dihydropyrido[2,3-d]pyrimidin-2-yl)amino)pyridin-3-yl)piperazine-1-carbonyl)piperidin-4-yl)piperazin-1-yl)-2-(2,6-dioxopiperidin-3-yl)isoindoline-1,3-dione] | – |
| > 200 | > 50 | > 200 | > 50 | 50 to 200 | CC(=O)c1c(C)c2cnc(Nc3ccc(N4CCN(C(=O)N5CCC(N6CCN(c7ccc8c(c7)CN(C7CCC(=O)NC7=O)C8=O)CC6)CC5)CC4)cn3)nc2n(C2CCCC2)c1=O (stereo not drawn) [Compound 4, 3-(5-(4-(1-(4-(6-((6-acetyl-8-cyclopentyl-5-methyl-7-oxo-7,8-dihydropyrido[2,3-d]pyrimidin-2-yl)amino)pyridin-3-yl)piperazine-1-carbonyl)piperidin-4-yl)piperazin-1-yl)-1-oxoisoindolin-2-yl)piperidine-2,6-dione] | – |
| > 200 | > 60 | > 200 | > 60 | 50 to 200 | CC(=O)c1c(C)c2cnc(Nc3ccc(N4CCN(C(=O)N5CCN(C6CCN(c7ccc8c(c7)C(=O)N(C7CCC(=O)NC7=O)C8=O)CC6)CC5)CC4)cn3)nc2n(C2CCCC2)c1=O (stereo not drawn) [Compound 5, 5-(4-(4-(4-(6-((6-acetyl-8-cyclopentyl-5-methyl-7-oxo-7,8-dihydropyrido[2,3-d]pyrimidin-2-yl)amino)pyridin-3-yl)piperazine-1-carbonyl)piperazin-1-yl)piperidin-1-yl)-2-(2,6-dioxopiperidin-3-yl)isoindoline-1,3-dione] | – |
| > 200 | > 50 | > 200 | > 50 | > 200 | CC(=O)c1c(C)c2cnc(Nc3ccc(N4CCN(C(=O)N5CCN(C6CCN(c7ccc8c(c7)CN(C7CCC(=O)NC7=O)C8=O)CC6)CC5)CC4)cn3)nc2n(C2CCCC2)c1=O (stereo not drawn) [Compound 6, 3-(5-(4-(4-(4-(6-((6-acetyl-8-cyclopentyl-5-methyl-7-oxo-7,8-dihydropyrido[2,3-d]pyrimidin-2-yl)amino)pyridin-3-yl)piperazine-1-carbonyl)piperazin-1-yl)piperidin-1-yl)-1-oxoisoindolin-2-yl)piperidine-2,6-dione] | – |
| 50 to 200 | > 60 | 50 to 200 | > 60 | 50 to 200 | CC(=O)c1c(C)c2cnc(Nc3ccc(N4CCN(C(=O)N5CCC(N6CCC(c7ccc8c(c7)C(=O)N(C7CCC(=O)NC7=O)C8=O)CC6)CC5)CC4)cn3)nc2n(C2CCCC2)c1=O (stereo not drawn) [Compound 7, 5-(1′-(4-(6-((6-acetyl-8-cyclopentyl-5-methyl-7-oxo-7,8-dihydropyrido[2,3-d]pyrimidin-2-yl)amino)pyridin-3-yl)piperazine-1-carbonyl)-[1,4′-bipiperidin]-4-yl)-2-(2,6-dioxopiperidin-3-yl)isoindoline-1,3-dione] | – |
| > 200 | > 60 | > 200 | > 50 | > 200 | CC(=O)c1c(C)c2cnc(Nc3ccc(N4CCN(C(=O)N5CCC(N6CCC(c7ccc8c(c7)CN(C7CCC(=O)NC7=O)C8=O)CC6)CC5)CC4)cn3)nc2n(C2CCCC2)c1=O (stereo not drawn) [Compound 8, 3-(5-(1′-(4-(6-((6-acetyl-8-cyclopentyl-5-methyl-7-oxo-7,8-dihydropyrido[2,3-d]pyrimidin-2-yl)amino)pyridin-3-yl)piperazine-1-carbonyl)-[1,4′-bipiperidin]-4-yl)-1-oxoisoindolin-2-yl)piperidine-2,6-dione] | – |
| > 200 | > 50 | > 200 | > 50 | > 200 | CC(=O)c1c(C)c2cnc(Nc3ccc(N4CCN(C(=O)N5CCC(C6CCN(c7ccc8c(c7)C(=O)N(C7CCC(=O)NC7=O)C8=O)CC6)CC5)CC4)cn3)nc2n(C2CCCC2)c1=O (stereo not drawn) [Compound 9, 5-(1′-(4-(6-((6-acetyl-8-cyclopentyl-5-methyl-7-oxo-7,8-dihydropyrido[2,3-d]pyrimidin-2-yl)amino)pyridin-3-yl)piperazine-1-carbonyl)-[4,4′-bipiperidin]-1-yl)-2-(2,6-dioxopiperidin-3-yl)isoindoline-1,3-dione] | – |
| > 200 | > 50 | > 200 | > 50 | > 200 | CC(=O)c1c(C)c2cnc(Nc3ccc(N4CCN(C(=O)N5CCC(C6CCN(c7ccc8c(c7)CN(C7CCC(=O)NC7=O)C8=O)CC6)CC5)CC4)cn3)nc2n(C2CCCC2)c1=O (stereo not drawn) [Compound 10, 3-(5-(1′-(4-(6-((6-acetyl-8-cyclopentyl-5-methyl-7-oxo-7,8-dihydropyrido[2,3-d]pyrimidin-2-yl)amino)pyridin-3-yl)piperazine-1-carbonyl)-[4,4′-bipiperidin]-1-yl)-1-oxoisoindolin-2-yl)piperidine-2,6-dione] | – |
| 50 to 200 | > 60 | 50 to 200 | > 60 | 50 to 200 | CC(=O)c1c(C)c2cnc(Nc3ccc(N4CCN(C(=O)N5CCC(CN6CCN(c7ccc8c(c7)C(=O)N(C7CCC(=O)NC7=O)C8=O)CC6)CC5)CC4)cn3)nc2n(C2CCCC2)c1=O (stereo not drawn) [Compound 11] | – |
| > 200 | > 60 | > 200 | > 60 | 50 to 200 | CC(=O)c1c(C)c2cnc(Nc3ccc(N4CCN(C(=O)N5CCC(CN6CCN(c7ccc8c(c7)CN(C7CCC(=O)NC7=O)C8=O)CC6)CC5)CC4)cn3)nc2n(C2CCCC2)c1=O (stereo not drawn) [Compound 12, 3-(5-(4-((1-(4-(6-((6-acetyl-8-cyclopentyl-5-methyl-7-oxo-7,8-dihydropyrido[2,3-d]pyrimidin-2-yl)amino)pyridin-3-yl)piperazine-1-carbonyl)piperidin-4-yl)methyl)piperazin-1-yl)-1-oxoisoindolin-2-yl)piperidine-2,6-dione] | – |
| 50 to 200 | > 60 | 50 to 200 | > 60 | 50 to 200 | CC(=O)c1c(C)c2cnc(Nc3ccc(N4CCN(C(=O)N5CCC(CC6CCN(c7ccc8c(c7)C(=O)N(C7CCC(=O)NC7=O)C8=O)CC6)CC5)CC4)cn3)nc2n(C2CCCC2)c1=O (stereo not drawn) [Compound 13, 5-(4-((1-(4-(6-((6-acetyl-8-cyclopentyl-5-methyl-7-oxo-7,8-dihydropyrido[2,3-d]pyrimidin-2-yl)amino)pyridin-3-yl)piperazine-1-carbonyl)piperidin-4-yl)methyl)piperidin-1-yl)-2-(2,6-dioxopiperidin-3-yl)isoindoline-1,3-dione] | – |
| > 200 | > 50 | > 200 | > 60 | 50 to 200 | CC(=O)c1c(C)c2cnc(Nc3ccc(N4CCN(C(=O)N5CCC(CC6CCN(c7ccc8c(c7)CN(C7CCC(=O)NC7=O)C8=O)CC6)CC5)CC4)cn3)nc2n(C2CCCC2)c1=O (stereo not drawn) [Compound 14, 3-(5-(4-((1-(4-(6-((6-acetyl-8-cyclopentyl-5-methyl-7-oxo-7,8-dihydropyrido[2,3-d]pyrimidin-2-yl)amino)pyridin-3-yl)piperazine-1-carbonyl)piperidin-4-yl)methyl)piperidin-1-yl)-1-oxoisoindolin-2-yl)piperidine-2,6-dione] | – |
| > 200 | > 50 | > 200 | > 50 | > 200 | CC(=O)c1c(C)c2cnc(Nc3ccc(N4CCN(C(=O)N5CCN(CC6CCN(c7ccc8c(c7)C(=O)N(C7CCC(=O)NC7=O)C8=O)CC6)CC5)CC4)cn3)nc2n(C2CCCC2)c1=O (stereo not drawn) [Compound 15, 5-(4-((4-(4-(6-((6-acetyl-8-cyclopentyl-5-methyl-7-oxo-7,8-dihydropyrido[2,3-d]pyrimidin-2-yl)amino)pyridin-3-yl)piperazine-1-carbonyl)piperazin-1-yl)methyl)piperidin-1-yl)-2-(2,6-dioxopiperidin-3-yl) isoindoline-1,3-dione] | – |

| SMILES | DC50 [1] [nM] | Dmax [1] [%] | DC50 [3] [nM] | Dmax [3] [%] | IC50 [2, 4] [nM] | IC50 ([2]; mantle cell lymphoma cell (Mino or JeKo-1); MTS assay, 72 h; read-out: IC50 (anti-proliferation)) [nM] |
| --- | --- | --- | --- | --- | --- | --- |
| CC(=O)c1c(C)c2cnc(Nc3ccc(N4CCN(C(=O)N5CCN(c6ccc7c(c6)C(=O)N(C6CCC(=O)NC6=O)C7=O)CC5)CC4)cn3)nc2n(C2CCCC2)c1=O (stereo not drawn) [Compound 1, 5-(4-(4-(6-((6-acetyl-8-cyclopentyl-5-methyl-7-oxo-7,8-dihydropyrido[2,3-d]pyrimidin-2-yl)amino)pyridin-3-yl)piperazine-1-carbonyl)piperazin-1-yl)-2-(2,6-dioxopiperidin-3-yl) isoindoline-1,3-dione] | 50 to 200 | > 60 | < 50 | > 60 | – | < 50 |
